Experiments:
[1] = system: H9c2 cells; assay: Phosphorylated H2AX imaging, H9c2 cells from multi-organ co-culture; assay type: cell-based, rat; conditions: CPA/DOX + DL7076
Experimental: Additionally, HPH were cultured in collagen-coated 6-well plates and pre-treated as described in the previous co-culture system. BT549 and H9c2 cells were plated on similar modified coverslips 0.8×10^5 cells and allowed to attach for 24 hours during hepatocyte pre-treatment. […] Following pre-treatment, BT549 coverslips were inserted adjacent to H9c2 coverslips over the sandwich cultured HPH as depicted in FIG. 43a. […] Both BT549 and H9c2 cells were harvested at indicated time points and assess for viability, apoptosis, and DNA damage as detailed further. […] Cells were fixed using 4% paraformaldehyde in PBS for 15 minutes followed by permeabilization with 0.5% Triton-X 100 in PBS for an additional 15 minutes at room temperature. Prior to blocking with 5% Bovine Serum Albumin (BSA), 3 washes with PBS were done to remove excess Triton-X. Primary antibody to mouse anti-phospho-H2AX ([…], clone JBW301, Millipore, 1:500 dilution) was prepared in PBS with 3% BSA and 0.3% Triton-X 100 and incubated overnight. […] The coverslips were visualized at 10× magnification using fluorescence microscopy (Nikon Eclipse Ti) and the amount of phosphorylation was quantified as mean intensity using brightspot detection of quadruplet images of the whole well and normalized to the vehicle control (0.1% DMSO).

[2] = system: BT549 cells; assay: HPH/BT549 co-culture, CPA cytotoxicity (CCK8); assay type: cell-based; conditions: HPH/BT549 coculture, DL7076 10 μM + CPA
Experimental: HPH were cultured in collagen-coated 24 well plates and pre-treated with vehicle control (0.1% DMSO), CITCO (1 μM) or DL7076 (5 μM or 10 μM) for 24 h. […] Following the 24 h pre-treatment, coverslips were combined in hepatocyte seeded wells and exposed to designated concentrations of cyclophosphamide in the presence or absence of DL7076 for various time intervals, as indicated.
H9c2 cells were seeded 0.8×10^5 in 24-well plates. Following cell attachment, a 2 h pre-treatment with vehicle control (0.1% DMSO), SFN (2.5 μM) or DL7076 (1 μM, 5 μM, or 10 μM) was done followed by doxorubicin (2.5 μM) exposure for 22 h. Co-culture cells were assembled and treated with cyclophosphamide and doxorubicin as indicated. A Cell Counting Kit-8 (Enzo) assay was carried out. Cell viability was described as a percent of vehicle control (0.1% DMSO). Cardiomyocyte, human iPSC-derived cardiomyocytes, and BT549 viability was determined with a 1 hr incubation of 6% CCK8 in WEM.

[3] = system: Nrf2; assay: Nrf2 luciferase reporter assay in HepG2 cells (ARE); assay type: cell-based; conditions: HepG2, screening, FIG. 37b
Experimental: HepG2 cells were cultured in 24-well plates (1×10^5 cells/well) and transfected with either a hCAR1+A expression vector (30 ng/well), a CYP2B6-2.2k reporter (60 ng/well) reporter, and pRL-TK (10 ng/well) or a ARE expression vector using X-tremeGENE 9 DNA Transfection Reagent (Sigma-Aldrich). After an overnight transfection, cells were treated with a vehicle control (0.1% DMSO), RIF (10 μM), DL7076 (1 μM, 5 μM, and 10 μM) for 24 hours. Cell lysates were assayed for luciferase activity and normalized against the activity of the Renilla luciferase using a Dual-Luciferase Kit (Promega).

[4] = system: CYP2B6; assay type: cell-based; conditions: human, hepatocytes
Experimental: HPH were obtained from BIOIVT (Baltimore, Md.) and seeded at 1.5×10^6 or 7.5×10^5 cells/well in 6- or 12-well collagen I-coated plates, while 24-well collagen I-coated plates were seeded at 3.75×10^5 cells/well as described previously. 24 hours after seeding, HPH were cultured cells were overlaid with 0.25 mg/mL Matrigel Corning, Corning, N.Y.) 24 h after seeding in serum-free William's E Medium (WEM) supplemented with ITS+(insulin, transferrin, and selenium, 100×; […] Millipore Sigma), 100 U/ml penicillin, and 100 μg/ml streptomycin (Pen-Strep; ThermoFisher Scientific, Waltham, Mass.), and 2 mM L-glutamine (Invitrogen, Carlsbad, Calif.). Overlaid HPH were treated with compounds in Complete WEM (CYP2B6 and CYP3A4 studies and coculture studies). After 24 h treatment, HPH, BT549, MDA-MB-231, and H9c2 cells were washed and a phenol-chloroform extraction was used to isolate total RNA with the TRIzol reagent (ThermoFisher, Rockford, Ill.). Reverse transcription was performed on extracted RNA (1 μg) to produce cDNA using the High Capacity cDNA Archive kit according to manufacturer's instructions (Applied Biosystems, Foster, Calif.). […] Quantification of expression changes was done by the 2^ΔΔCt method, normalizing to GAPDH as the housekeeping gene and determining the fold change compared to control values (n=3). […]

## O=C(NCCN=C=S)c1c(-c2ccc3ccccc3c2)nc2sccn12 [DL7076, N-(2-Isothiocyanatoethyl)-6-(naphthalen-2-yl)imidazo[2,1-b]thiazole-5-carboxamide]
[1]
  H2AX phosphorylation (DNA damage): a measured decrease in histone H2A phosphorylation
[2]
  CPA cytotoxicity in BT549 cells with cotreatment: significantly enhanced the cytotoxicity of CPA
[3]
  Nrf2 luciferase activity (potency and efficacy): higher potency and efficacy
[4]
  CYP2B6 protein induction: clear preferential induction of CYP2B6

From patent US20230134760A1, “CAR AND NRF2 DUAL ACTIVATOR AGENTS FOR CYCLOPHOSPHAMIDE-BASED AND DOXORUBICIN-BASED TREATMENTS OF CANCER” (priority 2020, published 2023)
